Measured values as given in US20130245029A1, “TREATMENT OF CANCER WITH TOR KINASE INHIBITORS” (SIGNAL PHARMACEUTICALS, LLC, priority 2012, published 2013).

Legend:
[1] = system: ETS overexpressing Ewing sarcoma cell lines; test: Soft agar colony formation (clonogenic growth inhibition); type: cell-based; conditions: 3 weeks in culture, ETS positive versus ETS negative cell lines, FIG. 1
Experimental: FIG. 1 provides a clonogenic growth inhibition assay for Compound 1 with ETS positive and ETS negative cell lines. […] Soft Agar Colony Formation. A solid layer of 1% agarose is used to coat each well of a 96-well plate. After allowing two hours to cool, five hundred Ewing's cells are suspended in a 33% agarose (10% solution), 33% media with 2×FBS and 33% cell suspension in quadruplicate wells of a 96-well plate. Cells are treated with or without TOR kinase inhibitor in an upper layer of media. Every three days, the media is exchanged for fresh TOR kinase inhibitor containing media. After 3-weeks in culture, images are taken on a 10× objective lens and colonies are counted for each condition.

[2] = system: Ewing's sarcoma cell lines (ETS positive cells); test: DNA damage COMET assay; type: cell-based; conditions: 48 hours treatment, FIG. 2
Text: DNA Damage Assays: COMET Assay.

Question: Which “sensitivity of colony formation to inhibition” value [1] does the source give for `CCN1C(=O)CNc2ncc(-c3ccc(-c4nc[nH]n4)nc3C)nc21` [Compound 1, 1-ethyl-7-(2-methyl-6-(1H-1,2,4-triazol-3-yl)pyridin-3-yl)-3,4-dihydropyrazino[2,3-b]pyrazin-2(1H)-one] here?
Answer: Its value is “more sensitive”.

Question: And the “DNA damage (COMET tail moments)” value [2]?
Answer: The value was “potentiates DNA damage”.
